Where two headings read alike, the source gives them in different places. Marks after values point to notes of the source that are not given here. Starred links: 1 amine or outer side, 2 acyl side, 3 side chain; linkers in the order of their positions; H or OH if unused. Non-standard residues stand in square brackets, D forms with d. Residues, ends and D or L forms follow the SMILES beside them. aza(4-F)Phe = aza-4-fluorophenylalanine (alpha-carbon replaced by nitrogen, para-fluoro), O=C(N(Cc1ccc(F)cc1)N[*:1])[*:2]; X1 = O=C([C@@H](Cc1ccccc1)NS(=O)(=O)N(Cc1ccc(F)cc1)N[*:1])[*:2]; azaTyr = O=C(N(Cc1ccc(O)cc1)N[*:1])[*:2]
Key:
[1] = biological target: T1, CD36 (Rattus norvegicus, UniProt Q07969); assay: Competition with [125I]-Tyr-Bpa-Ala-hexarelin tracer for CD36 binding on purified rat heart membranes; settings: purified membranes from rat heart, read-out: CD36 binding affinity IC50
T1 construct: purified membranes from rat heart as a source of CD36; from tissue; host or cells: rat heart (purified membranes)
Procedure: The ability of [(4-F)AsF^4]-GHRP-6 (3c) to compete with the radiolabeled [^125I]-Tyr-Bpa-Ala-hexarelin used as tracer for CD36 binding was tested on purified membranes from rat heart as a source of CD36 [36].

[2] = system: NO overproduction in J774 macrophage cell line elicited by TLR-2 agonist (R-FSL-1); assay: Modulation of TLR2 agonist (R-FSL-1)-induced overproduction of nitric oxide in J774 macrophage cell line (nitrite, DAN fluorescence); format: cell-based, murine; settings: J774 macrophages; for NO inhibition Fold of 1: 2 h pre-incubation, overnight stimulation with 300 ng/mL R-FSL-1; for Inhibitory effect on R-FSL-elicited NO production (in words): R-FSL-1
Procedure: The murine J774A.1 macrophage cell lines were obtained from American Type Cell Collection (ATCC #TIB-67), seeded at 1.5 × 10^5 cells/well in Dulbecco’s modified eagle media (DMEM) containing 100U/mL of penicillin (Pen) and 100 μg/mL of streptomycin (Strep) on a 48-well plate (Costar® #3548), and incubated at 37 °C with 5% CO2. After 2 h, the medium of adhered cells was changed to DMEM-Pen/Strep containing 0.2% of bovine serum albumin (BSA), and supplemented with either azasulfurylpeptide 3a–f or [azaK^6]-GHRP-6 as a negative control. After 2 h of pre-incubation, the cells were stimulated overnight with 300 ng/mL of R-FSL-1. Supernatants were collected for fluorescence determination of nitrite using 2,3-diaminonaphtalene (DAN). Briefly, 25 μL of sample was incubated with 0.5 μg of DAN in a 100 μL final volume of phosphate buffer (50 mM, pH 7.5) at rt in the dark. After 15 min, the reaction was stopped with 20 µL of NaOH (2.8N) and the plate was read using a fluorescence plate reader (TECAN® Safire, λexc 365 nm and λem 430 nm).

[3] = system: TNFα secretion in peritoneal macrophages; assay: TNFα secretion by peritoneal macrophages stimulated with R-FSL-1 (ELISA); format: cell-based, C57BL/6 mice; settings: 1 µM peptide, 2 h pretreatment, R-FSL-1 300 ng/mL, NA: no activity
Procedure: (§1) Peritoneal macrophage cells from C57BL/6 mice were harvested from sterile DMEM cell-culture medium (Wisent # 319-005-CL), allowed to adhere for 1 h at 37 °C in a 5% CO2 atmosphere, and washed twice with PBS to remove non-adherent cells. Macrophages (0.5 × 10^6 cells/well) were plated in 48 well-culture plates with DMEM containing 0.2% of bovine serum albumin (BSA), pretreated for 2 h with azasulfurylpeptides 3b–e or [azaK^6]-GHRP-6 (1 µM), before stimulation with a TLR2 ligand: R-FSL-1 (Invivogen® #L7022) at 300 ng/mL interferon gamma (IFNγ R&D Systems® Minneapolis, MN, USA # 172-5201) at 20 ng/mL for 4 or 24 h. The supernatants were recovered, and ELISA (eBioscience® #88-7324; 88-7391) was performed to determine the levels of proinflammatory cytokine and chemokine (TNFα, MCP-1). The effect on NF-κB activation was documented on cell lysates after 0, 5, 10, 15 and 30 min stimulation with R-FSL1, using NF-κB p65/RelA specific ELISA-based assay (eBioscience® #85-86083). The results were expressed as mean ± SEM and analyzed statistically by a one-way analysis of variance (ANOVA) with a Dunnett as a post-test. Level of significance was set at P < 0.05.

[4] = system: subretinal IBA-1 positive cells (activated microglia/macrophages); assay: Blue-light illumination model of retinal inflammation: IBA-1-positive cells in the subretinal space; format: in vivo; settings: ApoE−/− mice, 1000 lux blue light 5 d, 289 nmol/kg s.c. for 7 consecutive days, vs illuminated vehicle-treated mice, n = 3–5
Procedure: Apo E deficient (ApoE^−/−) mice were obtained from The Jackson Laboratory (Bar Harbor, ME, USA). Animals were housed under 12 h light/dark cycles and fed ad libitum with a standard rodent diet. All experimental procedures were done in accordance with the Animal Ethics Committee at Université de Montreal (CDEA, project 12-012 approved on 26 January 2013) and the Canadian Council on Animal Care guidelines for use of experimental animals.
Three to four-month-old ApoE^−/− mice were exposed to blue LED-light (Yescom USA, Inc., City Of Industry, CA, USA) for 5 d at 1000 lux illumination without previous dark-adaptation. For pupil dilatation, ophthalmic atropine solution 1% (Alcon, Fort Worth, TX, USA) was applied to both eyes daily. Aza- and azasulfurylpeptides 1, 2 and 3c or [azaK^6]-GHRP-6 (289 nmol/kg) were administered subcutaneously at 24 h following blue-light exposure for 7 consecutive days. At the end of the blue-light exposure period, the mice were maintained on a 12:12 h light: dark cycle for 3 days, before being sacrificed. Enucleated eyes were fixed in 4% paraformaldehyde (PFA) for 15 min at rt and sectioned at the limbus; the anterior segments were discarded. The posterior eye cups consisting of retinal pigment epithelium (RPE)/choroid/sclera complex were collected and prepared for immunofluorescence analysis.
RPE/choroid/sclera flat-mounts were treated with PBS solution containing 0.1% Triton 100× and 10% fetal bovine serum (FBS) or 5% BSA (saturation buffer) for 45 min. Specimens were incubated overnight at 4 °C with primary antibodies diluted in saturation buffer. Immunofluorescence was performed using polyclonal rabbit anti-IBA-1 as marker of activated cells. […] Flatmounts were analyzed using an IX81 Olympus fluorescence microscope (Richmond Hill, ON, Canada). […]
IBA-1–stained cells were counted on flatmounts from control and illuminated mice injected daily with 0.9% NaCl or with aza- and azasulfurylpeptides 1, 2 and 3c or [azaK^6]-GHRP-6 (289 nmol/kg). Cell numbers were expressed as the mean number of IBA-1–positive cells in subretinal space. […]

[5] = biological target: T1, CD36; settings: read-out: CD36 binding affinity IC50; cited from earlier work
[6] = system: MCP-1 secretion in peritoneal macrophages; assay: MCP-1 secretion by peritoneal macrophages stimulated with R-FSL-1 (ELISA); format: cell-based, C57BL/6 mice; settings: 1 µM peptide, 2 h pretreatment, R-FSL-1 300 ng/mL, NA: no activity
Procedure: as §1

[7] = system: mouse choroidal explants (RPE/choroid/sclera complex); assay: Microvascular sprouting on choroid explant as index of angiogenesis; format: cell-based; settings: 10^−6 M, 24 h, Matrigel-embedded mouse choroidal explants, n = 3–4
Procedure: Choroidal explants were set as described previously. Briefly, enucleated mice eyes with and without treatment with aza- and azasulfurylpeptides 1, 2 and 3c or [azaK^6]-GHRP-6 were collected and dissected to obtain the complex consisting of the RPE/choroid/sclera, which was cut in 16 explant fragments and cultured in 20 µL of Matrigel (BD biosciences, San Jose, CA, USA) in 24-wells plates (Sarstedt Inc., St. Leonard, QC, Canada). […] Phototographs of explants were taken under microscopy (T0 and T24 h). The explants were washed with endothelial basal medium (EBM) and incubated in EBM with NaCl or CD36 ligands at 10^−6 M for 24 h. The sprouting surface was assessed by image analysis using imagen J software. Ratios (sprouting surface at T24 h, sprouting surface at T0)/sprouting surface at T0 were determined. Numerical results were expressed as mean ± SEM. Data were compared using one-way ANOVA with Dunnett’s post-test. P < 0.05 was considered statistically significant (Prism software version 5.01; graphpad Software, San Diego, CA, USA).

T1 sequence (Q07969 whole entry): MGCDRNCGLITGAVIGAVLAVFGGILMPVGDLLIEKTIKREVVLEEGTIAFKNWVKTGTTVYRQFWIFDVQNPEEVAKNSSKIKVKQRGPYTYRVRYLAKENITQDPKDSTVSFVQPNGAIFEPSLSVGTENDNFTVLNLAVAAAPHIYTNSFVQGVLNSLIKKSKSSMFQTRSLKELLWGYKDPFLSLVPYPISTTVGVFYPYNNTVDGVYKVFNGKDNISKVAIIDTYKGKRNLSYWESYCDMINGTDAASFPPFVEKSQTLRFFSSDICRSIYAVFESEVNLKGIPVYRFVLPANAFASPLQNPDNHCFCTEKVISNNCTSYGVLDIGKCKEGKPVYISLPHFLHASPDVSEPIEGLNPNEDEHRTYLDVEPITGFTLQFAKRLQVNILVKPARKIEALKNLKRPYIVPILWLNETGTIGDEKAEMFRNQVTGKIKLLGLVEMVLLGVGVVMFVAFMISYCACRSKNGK

C[C@H](NC(=O)[C@@H](Cc1c[nH]c2ccccc12)NC(=O)[C@@H](N)Cc1c[nH]cn1)C(=O)NN(Cc1ccc(F)cc1)S(=O)(=O)N[C@H](Cc1ccccc1)C(=O)N[C@@H](CCCCN)C(N)=O [3c, H-His-D-Trp-Ala-(4-F)AsF-D-Phe-Lys-NH2] (H-H[dW]A[X1]K-NH2)
IC50 [1]: 2.53 µM

H-Ala-D-Trp-Ala-AsF(4-F)-D-Phe-Lys-NH2 [3f]
NO inhibition Fold of 1 [2]: -0.04 Fold of 1
Inhibitory effect on R-FSL-elicited NO production (in words) [2]: limited inhibitory effect

H-His-D-Trp-Ala-(4-MeO)AsF-D-Phe-Lys-NH2 [3d]
TNFα inhibition Fold of 1 [3]: 1.5 Fold of 1
NO inhibition Fold of 1 [2]: 1.5 Fold of 1

H-His-D-Trp-Ala-AsF(4-HO)-D-Phe-Lys-NH2 [3b]
NO inhibition Fold of 1 [2]: 0.2 Fold of 1

H-His-D-Trp-Ala-AsF-D-Phe-Lys-NH2 [3a]
NO inhibition Fold of 1 [2]: 1.6 Fold of 1
Inhibitory effect on R-FSL-elicited NO production (in words) [2]: reduced significantly NO production
Decrease of IBA-1+ cell accumulation in the subretina [4]: 50%

H-His-D-Trp-Ala-AsNal-D-Phe-Lys-NH2 [3e]
NO inhibition Fold of 1 [2]: 0.06 Fold of 1
Inhibitory effect on R-FSL-elicited NO production (in words) [2]: limited inhibitory effect

His-D-Trp-Ala-aza(4-F)Phe-D-Phe-Lys-NH2 (H-H[dW]A[aza(4-F)Phe][dF]K-NH2; SMILES C[C@H](NC(=O)[C@@H](Cc1c[nH]c2ccccc12)NC(=O)[C@@H](N)Cc1c[nH]cn1)C(=O)NN(Cc1ccc(F)cc1)C(=O)N[C@H](Cc1ccccc1)C(=O)N[C@@H](CCCCN)C(N)=O) [compound 2, semicarbazide analog of GHRP-6, CD36 ligand]
IC50 [5]: 6.06 µM

His-D-Trp-Ala-aza(4-F)Phe-D-Phe-Lys-NH2 [compound 2, semicarbazide analog of GHRP-6, CD36 ligand]
MCP-1 inhibition Fold of 1 [6]: 0.97 Fold of 1
TNFα inhibition Fold of 1 [3]: 0.87 Fold of 1
Effect on choroidal microvascular sprouting (in words) [7]: inhibited microvascular sprouting
NO inhibition Fold of 1 [2]: 1.4 Fold of 1
Decrease of IBA-1+ cell accumulation in the subretina [4]: 50%

His-D-Trp-Ala-azaTyr-D-Phe-Lys-NH2 (H-H[dW]A[azaTyr][dF]K-NH2; SMILES C[C@H](NC(=O)[C@@H](Cc1c[nH]c2ccccc12)NC(=O)[C@@H](N)Cc1c[nH]cn1)C(=O)NN(Cc1ccc(O)cc1)C(=O)N[C@H](Cc1ccccc1)C(=O)N[C@@H](CCCCN)C(N)=O) [compound 1, semicarbazide analog of GHRP-6, CD36 ligand]
IC50 [5]: 1.9 µM

His-D-Trp-Ala-azaTyr-D-Phe-Lys-NH2 [compound 1, semicarbazide analog of GHRP-6, CD36 ligand]
MCP-1 inhibition Fold of 1 [6]: 1 ^c Fold of 1
TNFα inhibition Fold of 1 [3]: 1 ^b Fold of 1
Effect on choroidal microvascular sprouting (in words) [7]: inhibited microvascular sprouting
NO inhibition Fold of 1 [2]: 1 ^a Fold of 1
Decrease of IBA-1+ cell accumulation in the subretina [4]: 50%
